One compound from patent US10815254B2, “Biflavone-zinc complex, preparation method and application thereof” (NANJING FORESTRY UNIVERSITY, priority 2017, dated 2020) can be followed below.

Experiment [1] is described as follows: Pyrogallol auto-oxidation method, O2-. free radical scavenging. As to conditions: Tris-HCl pH 8.20, 25° C., 322 nm, read-out: IC50 to scavenge O2^−. free radical. The procedure: The free radical scavenging effects of the Ame and the Ame-Zn complex were studied by pyrogallol auto-oxidation method and ABTS method with the following steps:
(1) Pyrogallol Auto-Oxidation Method
Determination of auto-oxidation rate V0 of pyrogallol: 2 mL Tris-HCl buffer (pH=8.20) was added to a 10 mL sample tube at 25° C., 100 μL DMSO was added as a control, after adding 0.8 mL distilled water, 0.2 mL pyrogallol solution having a concentration of 2 mmol·L^−1 was added, the mixture was poured into a cuvette after mixing uniformly, the absorbance at 322 nm was measured with pure water as a blank, the A value was recorded every 10 s for a total of 4 min, linear regression was performed with t as the abscissa, and A as the ordinate, straight line slope thereof is V0, and the measurement was performed for three times to obtain an average value. […]

Experiment [2] in a line: ABTS method, ABTS+. free radical scavenging. The note with it: 25° C., 5 min, 730 nm, from linear equation of scavenging rate vs concentration; read-out: IC50 for scavenging ABTS^+. free radicals. Here is the method: Determination of […]. free radical ion scavenging capacity of the blank sample: at 25° C., 2.9 mL ABTS^+. free radical ion working solution was added into a 10 mL sample tube, 100 μL DMSO was added, after reacting for 5 min, the UV-vis spectrum was measured, and the absorption intensity A0 at 730 nm was recorded.
Determination of ABTS^+. free radical ion scavenging capacity of the samples: at 25° C., 2.9 mL ABTS^+. free radical ion working solution was added into a 10 mL sample tube, 100 μL samples of different concentrations that were dissolved in DMSO were added, after reacting for 5 min, the UV-vis spectrum was measured, and the absorption intensity A1 at 730 nm was recorded, and the ABTS^+. free radical ion scavenging rate was calculated according to Formula 4.
The ABTS^+. free radical scavenging capacities of the Ame and the Ame-Zn complex are concentration dependent. Within a certain range, the scavenging rate is linear with the concentration. The curve of the scavenging rate and the concentration (c) is plotted in the present invention to obtain a corresponding linear equation, and the maximum half-inhibitory concentration (IC50 value) is calculated.

For experiment [3], the system named is herring sperm DNA (fDNA). The experiment in a line: Interaction with fDNA by UV-vis spectroscopy, fluorescence spectroscopy and viscosity method. The format is binding. The note with it: UV-vis, fluorescence (fDNA-EB system), viscosity. An excerpt:
UV-vis spectroscopy, fluorescence spectroscopy and viscosity method are used to study the interaction between the Ame/Ame-Zn complex and herring sperm DNA (fDNA) to further reveal the mechanism of antitumor activity, the obtained spectra are shown in FIGS. 7-11. […] Thereby, it can be speculated that the mechanism of antitumor activity of the Ame and its complex may be that Ame or the complex thereof enters the interior of the cell and intercalates with the DNA strand to cause apoptosis. Since the interaction of the complex with DNA is stronger than of the Ame, the antitumor activity thereof is also stronger than of the Ame.

Each structure is given as a SMILES string.

Take `O=c1cc(-c2ccc(O)c(-c3c(O)cc(O)c4c(=O)cc(-c5ccc(O)cc5)oc34)c2)oc2cc(O)cc(O)c12` [Ame, amentoflavone]: the IC50 (usually the concentration at which inhibition is half-maximal) in experiment [1] was 23.3 µM; in experiment [2] it was 20.7 µM. In experiment [3], the “manner of interaction with fDNA” value is “intercalation manner”.
